Results: the NIST ThermoML archive (doi:10.1021/je201014c)

Conditions: 101.33 kPa, Liquid; for viscosity: Capillary tube (Ostwald / Ubbelohde) method; for mass density: Vibrating tube method

CN(C)C=O [dimethylformamide]
Conditions | mass density [kg/m3] | viscosity [mPa·s]
283.15 K | 958.096 | 1.016
288.15 K | 953.346 | 0.9545
293.15 K | 948.584 | 0.8985
298.15 K | 943.817 | 0.8455
303.15 K | 939.042 | 0.799
308.15 K | 934.255 | 0.7553
313.15 K | 929.458 | 0.7172
318.15 K | 924.65 | 0.6826
